Columns and labels:
3T3-L1 cells = experiment: Inhibition of adipocyte differentiation, Oil Red O staining of triglyceride; assay type: cell-based, mouse
Experimental: Mouse adipocyte cell line (3T3-L1) was used to investigate the effect of various indole-3-carbinol derivatives on differentiation and growth of adipocytes. The preadipocytes, 3T3-L1 cells, were seeded on a 12-well plate and cultured to confluency using Dulbecco's modified Eagle's medium (DMEM) containing 1% penicillin-streptomycin, 1% nonessential amino acid and 10% fatal bovine serum (FBS), in a 5% CO2 incubator at 37° C. The 3T3-L1 cells grown to confluency were cultured for 2 days in MDI medium containing 0.5 mM isobutylmethylxanthine, 1 μM dexamethasone and 1 μg/mL insulin to differentiate them into adipocytes. Then, the cells were further cultivated in DMEM containing 1 μg/mL insulin to differentiate them into mature adipocytes. The cells were further cultured for 10 more days while replacing DMEM every other day to obtain fully differentiated adipocytes.
From the first day when MDI was added to the 3T3-L1 cells, 16 indole-3-carbinol derivative compounds were treated at concentrations of 0.1, 1, 10, 50 and 100 μM with 2-day intervals. The structure and molecular weight of the 16 indole-3-carbinol derivatives (B518, B521, B525, B528, B538, B540, B542, B544, B545, B546, B547, B549, B551, B556, B558 and B561) are described in Table 1. The derivative compounds were used after being dissolved in DMSO. Only DMSO was added to the negative control group.
After culturing for a total of 14 days, the medium was removed when the differentiation was completed and lipid droplets in the differentiated adipocytes were stained. For this, the cells were washed twice with phosphate buffered saline (PBS), fixed in 10% buffered neutral formalin (BNF) for 1 hour, washed once again with PBS, stained for 1 hour by adding 1 mL of Oil Red O dye, which specifically stains fat red, on the 12-well plate, and washed twice with distilled water. In order to measure the level of triglyceride contained in the differentiated 3T3-L1 cells, the stained lipid droplets were dissolved in 1 mL of isobutanol and optical density (OD) value was measured at 600 nm.

[1] = Body weight gain and visceral fat weight of mice fed high-fat test diet; assay type: in vivo, C57BL/6J mice; settings: 0.05% in high-fat diet, 10 weeks
Experimental: (§1) The obesity-inducing control diet used in the test was high-fat diet (HFD: 40% fat calorie, 17 g lard+3% corn oil/100 g diet). Diets supplemented with indole-3-carbinol derivatives (B525 and B528) had the same composition as HFD, except that each derivative was included at 0.05% (see Table 2). The diabetic drug metformin was added at 0.1% or the hyperlipidemic drug atorvastatin was added at 0.01% to HFD as controls. The normal diet group (Chow) was fed with commercially available rodent chow.
(§2) 56 5-week-old male C57BL/6J mice (Orient, Korea) were accustomed to the laboratory environment for 1 week while feeding solid feed. Then, they were randomly divided into normal diet, high-fat diet and test groups (n=8/group) and bred for a total of 10 weeks. The diet was given between 10 and 11 a.m. every day together with water. Food intake was measured every day and body weight was measured once a week. In order to avoid transient body weight increase after feed intake, body weight was measured 2 hours after removing the feed. After fasting the test animal for at least 12 hours and anesthetizing with diethyl ether, blood, liver and visceral fat (epididymal fat, perirenal fat, mesenteric fat and retroperitoneal fat) were taken and weighed after washing with 0.1 M PBS (pH 7.4). Blood taken from the abdominal aorta was centrifuged at 1000×g for 15 minutes to separate the plasma.

[2] = Biochemical analysis of blood (plasma lipids) of mice fed high-fat test diet; assay type: in vivo, C57BL/6J mice; settings: 0.05% in high-fat diet, 10 weeks
Experimental: as §1, §2
After 10 weeks of breeding, total cholesterol, triglyceride and glucose levels in the plasma and lipid level in the liver tissue were measured as follows. Total cholesterol, triglyceride and free fatty acid levels in the plasma were measured twice for each using a commercially available kit (Bio Clinical System).

[3] = Fasting blood sugar and oral glucose tolerance test in mice fed high-fat test diet; assay type: in vivo, C57BL/6J mice
Experimental: as §1, §2
On week 8 after feeding the test diet, oral glucose tolerance test was performed for all the groups. After fasting the mouse for 16 hours, glucose (2 g glucose/10 mL distilled water/kg body weight) was orally administered. Before and 15, 30, 60 and 120 minutes after the oral administration, the tail end was cut by about […] and blood was taken. Glucose level was measured using a glucose meter.

[4] = Liver weight and lipid level in liver tissue of mice fed high-fat test diet; assay type: in vivo, C57BL/6J mice; settings: 0.05% in high-fat diet, 10 weeks
Experimental: as §1, §2
Lipids were extracted from the liver tissue according to Folch et al.'s method Folch J et al., J Biol. Chem. 226: 497-509 (1957)). After adding 1 mL of distilled water to 0.25 g of liver tissue, the liver tissue was homogenized using a Polytron homogenizer (IKA-Werke GmbH & Co., Ultra-Turrax, Staufen, Germany). After adding 5 mL of chloroform:methanol solution (2:1, v/v) to the homogenate and mixing well, the mixture was centrifuged at 1000×g for 10 minutes. After adding 2 mL of chloroform:methanol solution (2:1, v/v) again to the supernatant, the same procedure was repeated to completely separate the lipid components of the liver. After adding 3 mL of chloroform:methanol:0.05% CaCl2 (3:48:47, v/v/v) solution to the remaining pellets and mixing well for 1 minute, followed by centrifugation at 1000×g for 10 minutes, the resulting pellets were completely dried with nitrogen gas. The dried lipids were dissolved in 1 mL of methanol and then analyzed.
The same kit (Bio Clinical System) as that used for the plasma analysis was used to measure the triglyceride and cholesterol levels of the liver tissue.

SMILES: CCN1C(=O)C(O)(c2c(C)[nH]c3ccccc23)c2cc(Br)ccc21 (centres unmarked) [B528, 5′-Bromo-1′-ethyl-3′-hydroxy-2-methyl-1′,3′-dihydro-1H,2′H-3,3′-biindol-2′-one]
- differentiation of the preadipocytes 3T3L1 (3T3-L1 cells; 0.1, 1, 10, 50 and 100 μM, 14 days, vs DMSO control): reduced the differentiation of the preadipocytes 3T3L1 in a concentration-dependent manner
- triglyceride accumulation in cells (3T3-L1 cells; 3T3-L1 cells, FIGS. 1-3): effectively reduce triglyceride accumulation in cells
- decrease of body weight gain as compared to HFD [1]: 30%
- reduction of total visceral fat weight as compared to HFD [1]: 26%
- weight of epididymal fat, perirenal fat, mesenteric fat and retroperitoneal fat as compared to HFD [1]: significantly reduced
- reduction of arteriosclerotic index in blood plasma as compared to HFD [2]: 35%
- reduction of total cholesterol level in blood plasma as compared to HFD [2]: 21%
- reduction of triglyceride level in blood plasma as compared to HFD [2]: 38%
- reduction of fasting blood sugar level as compared to HFD ([3]; 0.05% in high-fat diet, 8 weeks): 39%
- blood glucose level after oral glucose as compared to HFD ([3]; OGTT, 15, 30, 60 and 120 minutes, week 8): decreased blood glucose level at all times
- change of blood glucose level after oral glucose as compared to HFD ([3]; OGTT, after 60 minutes, week 8): −29%
- area under the curve (AUC) of the blood glucose level as compared to HFD ([3]; OGTT, week 8): decreased significantly
- effect on oral glucose tolerance compared to controls metformin and atorvastatin ([3]; OGTT, week 8): excellent effect of improving oral glucose tolerance, better than the controls metformin and atorvastatin
- appearance of liver tissue as compared to HFD [4]: smaller and darker liver tissue
- decrease of cholesterol level in liver tissue as compared to HFD [4]: 28%
- decrease of liver weight as compared to HFD [4]: 31%
- decrease of triglyceride level in liver tissue as compared to HFD [4]: 34%

— patent US8946283B2, “Composition for preventing or treating obesity, dyslipidemia, fatty liver or diabetes containing indole-3-carbinol derivative as active ingredient” (Industry-Academic Cooperation Foundation, Yonsei University, priority 2011, dated 2015)
